Test: Activity at human TP receptor in platelet rich plasma assessed as inhibition […]-induced platelet aggregation

## CC(=O)c1cc(F)cc2c3c(n(Cc4ccc(Cl)cc4)c12)[C@@H](CC(=O)O)CC3 [[(3R)-4-(4-chlorobenzyl)-7-fluoro-5-acetyl-1,2,3,4-tetrahydrocyclopenta-[b]indol-3-yl]acetic acid]
  IC50: 1.4 µM

## O=C(O)C[C@H]1CCc2c1n(Cc1ccc(Cl)cc1)c1c(Br)cc(F)cc21 [[(3R)-5-bromo-4-(4-chlorobenzyl)-7-fluoro-1,2,3,4-tetrahydrocyclopenta[b]indol-3-yl]acetic acid]
  IC50: 0.08 µM

Source: BindingDB's records for doi:10.1021/jm0603668 (Merck Frosst Canada, 2007)
